The values below come from US10647665B2, “Biaryl urea derivative or salt thereof and preparation process and use for the same” (Fudan University, priority 2016, dated 2020).

Test [1] concerns Mouse Th17 cell differentiation. The experiment in a line: Inhibition of mouse Th17 cell differentiation (IL-17 by intracellular staining and flow cytometry). Type of test: cell-based. Particulars: compound at 0.3 μM, mouse spleen CD4+ T cells, 96 hours. As for the experimental part:
Experimental method: Mouse spleen CD4^+ T cells were isolated and differentiated into Th17 cells. CD4^+ T cells were cultured in the environment of anti-CD3 (0.25 μg/mL), anti-CD28 (1 μg/mL), anti-IL4 (2 μg/mL), anti-IFN-γ (2 μg/mL), TGF-β (5 ng/mL), and IL6 (20 ng/mL), and then the test compound was added. After 96 hours, the differentiation efficiency of Th17 was analyzed. Before collection of cells, PMA at 50 ng/mL and ionomycin at 500 ng/mL were added for stimulation for 4 hours, and the ratio of IL-17 was detected by intracellular staining and flow cytometry. At the same time, we used Live/Dead Cell Dye (Invitrogen) staining method to analyze the cell survival rate, to judge whether the drug had toxicity to cells, and determine the inhibition rate of the compound at a concentration of 0.3 μM on IL-17 differentiation by Th 17 cells.

The target in test [2] is RORγ receptor (B-RORγ LBD) (Homo sapiens (Human), UniProt P51449). The experiment in a line: Inhibitory activity on RORγ receptor in vitro by fluorescence resonance energy transfer (FRET). Type of test: biochemical. The conditions noted are these: average of at least two independent tests. On the procedure:
The inhibitory activity of compounds on RORγ receptor was determined by fluorescence resonance energy transfer (FRET) experiments. The inhibitory activity was expressed by half-inhibitory concentration (IC50).
1. Preparation of RORγ Buffer Solution
10 mL of DTT and 100 mL buffer solution were gently mixed together and ready to use.
2. Preparation of Compound Solution
3. Preparation of Protein Mixture a. 40 nM B-RORγ LBD solution and 20 nM SA-APC solution were gently mixed together. The reaction mixture was incubated for 15 minutes at room temperature. Then 400 nM Biotin was added to the described above mixture. After gently mixed together, the resulting mixture was incubated for 10 minutes at room temperature. […]
b. 40 nM Bioin-SRC1 solution and 10 nM SA-eu solution were gently mixed together, and the reaction mixture was incubated for 15 minutes at room temperature. Then 200 nM Biotin was added to the described above mixture. After gently mixed together, the resulting mixture was incubated for 10 minutes at room temperature. […]
d. A mixture of 0.1 μM alternative agonist
N-(2-chloro-6-fluorophenyl)-N-((20-methoxy-[1,10-biphenylyl]-4-substituted)methyl)benzenesulfonamide, 25 μL B-RORγ LBD/SA-APC and Bioin-SRC1/SA-eu mixture solution with test compound were added to one of the well of a 384-well plate, then they were centrifuged for 1 minute at 1000 rpm, and incubated at room temperature for 1 hour. The values were read on the Envision microplate detector and IC50 was calculated.

SMILES strings stand for the structures.

Sequence of RORγ receptor (B-RORγ LBD) (P51449 269-508): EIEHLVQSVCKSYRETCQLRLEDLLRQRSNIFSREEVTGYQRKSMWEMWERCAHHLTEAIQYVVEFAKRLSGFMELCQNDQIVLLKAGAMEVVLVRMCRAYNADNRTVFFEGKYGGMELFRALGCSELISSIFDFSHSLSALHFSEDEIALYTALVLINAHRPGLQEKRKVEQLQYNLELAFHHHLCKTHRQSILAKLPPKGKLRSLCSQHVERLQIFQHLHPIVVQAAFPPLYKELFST

Take `O=C(O)Cc1ccc(CNC(=O)Nc2cc(Cl)c(-c3ccccc3OC(F)(F)F)c(Cl)c2)cc1` [Example 1-15, 2-(4-((3-(2,6-dichloro-2′-(trifluoromethoxy)-[1,1′-biphenyl]-4-yl)ureido)methyl)phenyl)acetic acid]: the inhibition at 0.3 µM in test [1] was in the range of 70 to 100%. Turning to `Cc1cc(NC(=O)NCc2ccc(CC(=O)O)cc2)cc(C)c1-c1ccccc1OC(F)F` [Example 1-21, 2-(4-((3-(2′-(difluoromethoxy)-2,6-dimethyl-[1,1′-biphenyl]-4-yl)ureido)methyl)phenyl)acetic acid], in test [2], the IC50 is < 500 nM. In addition, the inhibition at 0.3 µM in test [1] is 0 to 40%. On to `N#Cc1cc(NC(=O)NCc2ccc(CC(=O)O)cc2)cc(Cl)c1-c1ccccc1OC(F)(F)F` [Example 1-16, 2-(4-((3-(2-chloro-6-cyano-2′-(trifluoromethoxy)-[1,1′-biphenyl]-4-yl)ureido)methyl)phenyl)acetic acid], for which the IC50 in test [2] is < 500 nM. In test [1], the inhibition at 0.3 µM fell in the range of 0 to 40%. `O=C(O)Cc1ccc(CNC(=O)Nc2ccc(-c3ccccc3)cc2)cc1` [Example 1-23, 2-(4-((3-([1,1′-biphenyl]-4-yl)ureido)methyl)phenyl)acetic acid] yielded an IC50 in test [2] of 5000 to 50000 nM. Moreover, the inhibition at 0.3 µM in test [1] fell in the range of 0 to 40%. The corresponding values for `CNS(=O)(=O)c1ccc(CNC(=O)Nc2cc(Cl)c(-c3ccccc3OC(F)(F)F)c(Cl)c2)cc1` [Example 1-5, 4-((3-(2,6-dichloro-2′-(trifluoromethoxy)-[1,1′-biphenyl]-4-yl)ureido)methyl)-N-methylbenzenesulfonamide] are < 500 nM and 70 to 100%. Consider `O=C(NCc1ccc(C(=O)O)cc1)Nc1cc(Cl)c(-c2ccccc2OC(F)(F)F)c(Cl)c1` [Example 1-14, 4-((3-(2,6-dichloro-2′-(trifluoromethoxy)-[1,1′-biphenyl]-4-yl)ureido)methyl)benzoic acid], for which the IC50 in test [2] is 500 to 5000 nM. In test [1], this molecule registered an inhibition at 0.3 µM of 0 to 40%. Consider `CCS(=O)(=O)c1ccc(CNC(=O)Nc2cc(Cl)c(-c3ccccc3OC(F)(F)F)c(Cl)c2)cc1` [Example I-1, 1-(2,6-dichloro-2′-(trifluoromethoxy)-[1,1′-biphenyl]-4-yl)-3-(4-(ethylsulfonyl)benzyl)urea], for which, in test [1], the inhibition at 0.3 µM was in the range of 70 to 100%.

For `CCS(=O)(=O)c1ccc(CNC(=O)Nc2ccc(-c3ccccc3)cc2)cc1` [Example 1-2, 1-([1,1′-biphenyl]-4-yl)-3-(4-(ethylsulfonyl)benzyl)urea], the IC50 in test [2] lay in the range of 5000 to 50000 nM. Also, in test [1], the inhibition at 0.3 µM lay in the range of 0 to 40%. For `CC(=O)NS(=O)(=O)c1ccc(CNC(=O)Nc2cc(Cl)c(-c3ccccc3OC(F)(F)F)c(Cl)c2)cc1` [Example 1-7, N-((4-((3-(2,6-dichloro-2′-(trifluoromethoxy)-[1,1′-biphen-1,1′-biphenyl]-4-yl)ureido)methyl)phenyl)sulfonyl)acetamide] the same measures were < 500 nM and 0 to 40%. For `Cn1cc(-c2cc(NC(=O)NCc3ccc(CC(=O)O)cc3)ccc2-c2ccccc2OC(F)(F)F)cn1` [Example 1-22a, 2-(4-((3-(2-(1-methyl-1H-pyrazol-4-yl)-2′-(trifluoromethoxy)-[1,1′-biphenyl]-4-yl)ureido)methyl)phenyl)acetic acid] the same measures were 500 to 5000 nM and 0 to 40%. The corresponding values for `Cc1cc(NC(=O)NCc2ccc(CC(=O)O)cc2)cc(Cl)c1-c1ccccc1OC(F)(F)F` [Example 1-17, 2-(4-((3-(2-chloro-6-methyl-2′-(trifluoromethoxy)-[1,1′-biphenyl]-4-yl)ureido)methyl)phenyl)acetic acid] are < 500 nM and 70 to 100%.

Regarding `Cn1cc(-c2cccc(OC(F)(F)F)c2-c2ccc(NC(=O)NCc3ccc(CC(=O)O)cc3)cc2)cn1` [Example 1-22b, 2-(4-((3-(2′-(1-methyl-1H-pyrazol-4-yl)-6′-(trifluoromethoxy)-[1,1′-biphenyl]-4-yl)ureido)methyl)phenyl)acetic acid], the IC50 in test [2] fell in the range of 500 to 5000 nM. This molecule had an inhibition at 0.3 µM in test [1] of 0 to 40%. In test [2], `O=C(O)Cc1ccc(CNC(=O)Nc2cc(F)c(-c3ccccc3OC(F)(F)F)c(F)c2)cc1` [Example 1-19, 2-(4-((3-(2,6-difluoro-2′-(trifluoromethoxy)-[1,1′-biphenyl]-4-yl)ureido)methyl)phenyl)acetic acid] had an IC50 of 500 to 5000 nM. This molecule gave an inhibition at 0.3 µM in test [1] of 0 to 40%. The corresponding values for `O=C(O)Cc1ccc(CNC(=O)Nc2cc(Cl)c(-c3ccccc3OC(F)F)c(Cl)c2)cc1` [Example 1-20, 2-(4-((3-(2,6-dichloro-2′-(difluoromethoxy)-[1,1′-biphenyl]-4-yl)ureido)methyl)phenyl)acetic acid] are < 500 nM and 0 to 40%.

As to `O=C(O)COc1ccc(CNC(=O)Nc2cc(Cl)c(-c3ccccc3OC(F)(F)F)c(Cl)c2)cc1` [Example 1-26, 2-(4-((3-(2,6-dichloro-2′-(trifluoromethoxy)-[1,1′-biphenyl]-4-yl)ureido)methyl)phenoxy)acetic acid], in test [1], the inhibition at 0.3 µM lay within 0 to 40%. For the molecule `NS(=O)(=O)c1ccc(CNC(=O)Nc2cc(Cl)c(-c3ccccc3OC(F)(F)F)c(Cl)c2)cc1` [Example 1-6, 4-((3-(2,6-dichloro-2′-(trifluoromethoxy)-[1,1′-biphenyl]-4-yl)ureido)methyl)benzenesulfonamide], the IC50 in test [2] was < 500 nM. In addition, in test [1], the inhibition at 0.3 µM is 40 to 70%. The corresponding values for `O=C(O)Cc1ccc(CNC(=O)Nc2ccc(-c3ccccc3OC(F)(F)F)c(Cl)c2)cc1` [Example 1-18, 2-(4-((3-(2-chloro-2′-(trifluoromethoxv)-[1,1′-biphenyl]-4-yl)ureido)methyl)phenyl)acetic acid] are 500 to 5000 nM and 0 to 40%. The corresponding values for `CCS(=O)(=O)c1ccc(CNC(=O)Nc2ccc(-c3ccccc3OC(F)(F)F)c(Cl)c2)cc1` [Example 1-3, 1-(2-chloro-2′-(trifluoromethoxy)-[1,1′-biphenyl]-4-yl)-3-(4-(ethylsulfonyl)benzyl)urea] are 500 to 5000 nM and 40 to 70%.

With `CS(=O)(=O)c1ccc(CNC(=O)Nc2cc(Cl)c(-c3ccccc3OC(F)(F)F)c(Cl)c2)cc1` [Example 1-4, 1-(2,6-dichloro-2′-(trifluoromethoxy)-[1,1′-biphenyl]-4-yl)-3-(4-(methylsulfonyl)benzyl)urea], the IC50 in test [2] is < 500 nM. In test [1], this molecule displayed an inhibition at 0.3 µM of 40 to 70%.
